Measurements reported in patent US11780842B2, “TYK2 pseudokinase ligands” (Ventyx Biosciences, Inc., priority 2019, dated 2023).
pIC50: −log10 of the molar value.

These molecules were tested on IFN-a/Jak1Tyk2 (assay: Co-stimulation assay in lysed whole blood: IFNa (JAK1/TYK2) stimulated STAT1 phosphorylation). Details: lysed human whole blood, IFNa 100 ng/mL (co-stimulated with GM-CSF 10 ng/mL), pSTAT1 by flow cytometry.
Type: cell-based
Description: Example 4: Co-Stimulation Assay in Lysed Whole Blood; JAK2: GM-CSF Stimulated STATS Phosphorylation and JAK1/TYK2 Stimulated STAT1 Phosphorylation Assay
Human Blood Lysis Using Abcam's RBC Lysis Buffer
Dilute RBC lysis buffer to 1× in distilled water. Add 2 mL blood to 38 mL of 1×RBC-lysis buffer. Incubate for 15 mins at RT, in dark. Spin at 300 g, 5 mins, to collect the pellet. Re-lyse if necessary. Re-suspend pellet in 5 mL of cRPMI.
Compound and Cytokine Treatment
Aliquot 80 μL of lysed human blood in to wells of 96 deep-well plate. Add 10 μl of (10× conc.) of different concentrations of compounds to all wells except controls (unstained and unstimulated) and mix it with the help of 100 uL multichannel. Add 10 uL of RPMI media in controls. For dilution of compounds and dilution range please refer Appendix. Incubate on water bath or CO2 incubator for 1 hour at 37° C. Add 10 μL of (10× conc.) of cytokine mix (GM-CSF and IFNa) (final conc. 10 ng/mL of GM-CSF and 100 ng/mL of IFNa) to each well except unstimulated and unstained controls and incubate further for 20 minutes on water bath at 37° C.
Add 900 μL of prewarmed 1× Fix/Lyse solution (Appendix) and mix it properly using 1000 μl multichannel, incubate further on water bath at 37° C. for 10 minutes (which includes time of addition). Centrifuge at 800× g for 5 minutes at 40° C.; remove 900 uL of supernatant and add 900 μL of 1×PBS. Centrifuge at 800× g for 5 minutes at 40° C., remove 900 μL of supernatant. Wash one more time with 900 μL of PBS (optional) and resuspend pellets in 100 uL of PBS.
Disrupt the pellet by gentle tapping and resuspend in 1000 μL of BD Phosflow Perm Buffer III and incubate plate on ice for 30 minutes. Centrifuge plate at 800× g for 5 minutes at 40° C. Wash two more times with 1000 μL of BD Pharmingen Stain Buffer.
Disrupt the pellet by gentle tapping. Resuspend pellets in 100 uL of Stain Buffer and add 5 μL of pSTAT5_AF488 Ab and 5 uL of pSTAT1_PE in all wells except unstained control and mix properly using 200 μl multichannel, incubate overnight at […]. Add 900 μL of wash buffer and centrifuge at 1800 rpm for 3 minutes at […]. Wash one more time with 1000 μL of BD Pharmingen Stain Buffer. Finally resuspend the pellet in 300 uL of BD Pharmingen Stain Buffer. Transfer the cells to 96-well v-bottom plate and acquire the cells in Beckman Coulter CytExpert. Acquiring cells in Flow Cytometer: Keep the threshold value to 250 and cell concentration should not exceed 100-500 cells/μL. Acquire at least 5,000-10,000 cells.
RPMI 1640 Complete Medium: RPMI 1640 media+10% FBS.
Cytokine dilution: 1) GM-CSF Stock at 100 ug/mL. Prepare an intermediate dilution of 1 ug/mL by adding 2 uL of stock into 198 uL of cRPMI. Further dilute to 100 ng/mL by adding 100 uL of the intermediate stock to 900 uL of cRPMI. 2) IFNa Stock at 200 ug/mL. Dilute IFNa stock 1:200 by adding 5 uL of stock into the 1000 uL of 100 ng/mL GM-CSF working stock as above to give a combined working stock of 1000 ng/mL of IFNa and 100 ng/mL GM-CSF (lox). Keep it on ice until used.
Lyse/Fix buffer preparation: Dilute 5× Lyse/Fix buffer to 1× using MQ water and keep at 37° C. until used.
BD Phosflow perm buffer III: Keep on ice/fridge.

| SMILES | pIC50 |
| --- | --- |
| CNc1cc2nc3c(cnn13)C(=O)NCC(C)Oc1cccc(c1)N2 (centres unmarked) [Compound 37, (1^3E,1^4E)-5-methyl-1^7-(methylamino)-4-oxa-2,7-diaza-1(5,3)-pyrazolo[1,5-a]pyrimidina-3(1,3)-benzenacyclooctaphan-8-one] | 5.00 to 6.00 |
| CNc1cc2nc3c(cnn13)C(=O)NCCCc1cc(O)cc(c1)N2 [Compound 38, (1^3E,1^4E)-3^5-hydroxy-1^7-(methylamino)-2,7-diaza-1(5,3)-pyrazolo[1,5-a]pyrimidina-3(1,3)-benzenacyclooctaphan-8-one] | 5.00 to 6.00 |
| CNc1cc2nc3c(cnn13)C(=O)NCCOc1cc(c(F)cc1C)N2 [Compound 39, (1^3E,1^4E)-3^6-fluoro-34-methyl-1^7-(methylamino)-4-oxa-2,7-diaza-1(5,3)-pyrazolo[1,5-a]pyrimidina-3(1,3)-benzenacyclooctaphan-8-one] | 5.00 to 6.00 |
| CNc1cc2nc3c(cnn13)C(=O)NCCCc1cc(cc(OC)c1)N2 [Compound 40, (1^3E,1^4E)-3^5-methoxy-1^7-(methylamino)-2,7-diaza-1(5,3)-pyrazolo[1,5-a]pyrimidina-3(1,3)-benzenacyclooctaphan-8-one] | 5.00 to 6.00 |
| CNc1cc2nc3c(cnn13)C(=O)NCCOc1cncc(c1)N2 [Compound 41, (1^3E,1^4E)-1^7-(methylamino)-4-oxa-2,7-diaza-1(5,3)-pyrazolo[1,5-a]pyrimidina-3(3,5)-pyridinacyclooctaphan-8-one] | 5.00 to 6.00 |

The next lines start with the values.

| pIC50 | SMILES |
| --- | --- |
| 5.00 to 6.00 | CNc1cc2nc3c(cnn13)C(=O)NCCc1cccc(n1)N2 [Compound 42, (1^3E,1^4E)-1^7-(methylamino)-2,6-diaza-1(5,3)-pyrazolo[1,5-a]pyrimidina-3(2,6)-pyridinacycloheptaphan-7-one] |
| 5.00 to 6.00 | CNc1cc2nc3c(cnn13)C(=O)NCCCc1csc(n1)N2 [Compound 43, (1^2Z,3^3E,3^4E)-3^7-(methylamino)-2,5-diaza-1(2,4)-thiazola-3(5,3)-pyrazolo[1,5-a]pyrimidinacyclooctaphan-4-one] |
| 5.00 to 6.00 | CNc1cc2nc3c(cnn13)C(=O)NCCC(=O)c1cccc(c1)N2 [Compound 44, (1^3E,1^4E)-1^7-(methylamino)-2,7-diaza-1(5,3)-pyrazolo[1,5-a]pyrimidina-3(1,3)-benzenacyclooctaphane-4,8-dione] |
| 5.00 to 6.00 | CNc1cc2nc3c(cnn13)C(=O)NCCCn1cc(cn1)N2 [Compound 45, (1^3E,1^4E,3^4E)-1^7-(methylamino)-31H-2,7-diaza-1(5,3)-pyrazolo[1,5-a]pyrimidina-3(4,1)-pyrazolacyclooctaphan-8-one] |
| 5.00 to 6.00 | CNc1cc2nc3c(cnn13)C(=O)NCCCOc1ccc(F)cc1N2 [Compound 46, (1^3E,1^4E)-3^5-fluoro-1^7-(methylamino)-4-oxa-2,8-diaza-1(5,3)-pyrazolo[1,5-a]pyrimidina-3(1,2)-benzenacyclononaphan-9-one] |
| 5.00 to 6.00 | CNc1cc2nc3c(cnn13)C(=O)NCCn1cc(cn1)N2 [Compound 47, (1^3E,1^4E,3^4E)-1^7-(methylamino)-31H-2,6-diaza-1(5,3)-pyrazolo[1,5-a]pyrimidina-3(4,1)-pyrazolacycloheptaphan-7-one] |
